The text below walks through data of patent US10849838B2, “Biaromatic vitamin D analogs” (DSM IP ASSETS B.V., priority 2015, dated 2020).

SMILES strings stand for the structures.

This assay deals with T1, human vitamin D receptor (VDR) (Homo sapiens, UniProt P11473).
T1 construct: expressed in transfected cells; host or cells: HEK293 cells (ATCC), transient transfection
T1 sequence (P11473 127-423 limits assumed): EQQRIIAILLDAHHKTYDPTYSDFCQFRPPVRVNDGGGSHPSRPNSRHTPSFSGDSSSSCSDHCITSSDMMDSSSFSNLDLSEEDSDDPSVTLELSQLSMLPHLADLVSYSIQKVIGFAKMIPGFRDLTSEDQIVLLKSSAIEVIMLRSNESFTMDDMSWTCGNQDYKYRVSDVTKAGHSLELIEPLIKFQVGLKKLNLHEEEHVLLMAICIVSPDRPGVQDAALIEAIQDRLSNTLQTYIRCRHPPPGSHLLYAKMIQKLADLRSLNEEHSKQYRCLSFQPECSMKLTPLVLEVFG
Description: Human vitamin D receptor (VDR) agonist activity, GAL4-VDR LBD luciferase transactivation assay in transiently transfected HEK293 cells. The note with it: hybrid VDR-GAL4 receptor, pFR-Luc luciferase reporter, 16 h incubation, read-out: Effective concentrations of half maximal activation (EC50). In kind it is cell-based. The source says:
By way of example, the human vitamin D receptor (VDR) agonist activity of the claimed compounds can be tested using a cell based transactivation assay in an eukaryotic cell line. After a co-transfection, using a reporter plasmid construct and a hybrid receptor construct containing the ligand-binding domain of the human VDR linked to the DNA-binding domain of the yeast transcription factor GAL4, the cultured cells were stimulated by the VDR agonists. The hybrid VDR-GAL4 receptor binds the VDR agonists and transactivates luciferase reporter expression through the GAL4-response elements in the promoter of the luciferase gene (reporter construct). The VDR agonist binding and transactivation is determined by measuring the luciferase luminescence activity. The effective concentration of half maximal activation (EC50) was determined for the VDR agonists by means of dose-response experiments. The details of the protocol method of this test according to the invention are described in the example section. […]
In general terms: In a reporter assay the amount or activity of a reporter protein is the signal.

Turning to `CC/C(=C\C=C\C(O)(CC)CC)c1cccc(CCc2ccc(CO)c(C(C)O)c2)c1` (racemic) [Comp1], the EC50 stood at 113 nM.

Take `CC/C(=C\C=C\C(O)(CC)CC)c1cccc(CCc2ccc(C(C)O)c(CO)c2)c1` (racemic) [I-a, (4E,6E)-3-ethyl-7-(3-(4-(1-hydroxyethyl)-3-(hydroxymethyl)phenethyl)phenyl)nona-4,6-dien-3-ol]: the EC50 was found to be 7 nM.
